# pIC50: −log10 of the molar value.
# Key:
# [1] = system: P. aeruginosa expressing IMP-1, efflux− (MB9799); test: Efflux: concentration of MBL inhibitor which restores susceptibility to imipenem; type: cell-based, Pseudomonas aeruginosa; conditions: imipenem at 2 μg/mL, in the presence of a class A, C, D serine β-lactamase inhibitor closely related to relebactam
# Text: (§1) The strain background is Pseudomonas aeruginosa PAO1.
# IMP-1 = IMP-1 (Serratia marcescens, UniProt P52699); test: biochemical; type: biochemical; conditions: CCF2-FA substrate, 2 hours at 25° C; read-out: IMP-1 IC50
# Chain of IMP-1 (P52699 whole entry, looked up, species assumed): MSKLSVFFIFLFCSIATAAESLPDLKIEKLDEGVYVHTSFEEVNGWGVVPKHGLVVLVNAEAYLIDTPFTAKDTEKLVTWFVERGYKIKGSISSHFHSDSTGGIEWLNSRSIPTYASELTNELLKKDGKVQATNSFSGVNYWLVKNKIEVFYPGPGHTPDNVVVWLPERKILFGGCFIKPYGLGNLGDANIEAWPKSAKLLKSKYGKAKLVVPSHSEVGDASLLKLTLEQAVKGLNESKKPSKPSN
# Summary of the method: (§2)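 Inhibitor was mixed with the metallo-β-lactamase and CCF2-FA. After 2 hours at 25° C, fluorescence of the coumarin–fluorescein cephalosporin substrate was read. IC50 was calculated with a 4-parameter fit.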
# NDM-1 = NDM-1 (Klebsiella pneumoniae, UniProt C7C422); test: biochemical; type: biochemical; conditions: CCF2-FA substrate, 2 hours at 25° C; read-out: NDM-1 IC50
# Chain of NDM-1 (C7C422 whole entry, looked up, species assumed): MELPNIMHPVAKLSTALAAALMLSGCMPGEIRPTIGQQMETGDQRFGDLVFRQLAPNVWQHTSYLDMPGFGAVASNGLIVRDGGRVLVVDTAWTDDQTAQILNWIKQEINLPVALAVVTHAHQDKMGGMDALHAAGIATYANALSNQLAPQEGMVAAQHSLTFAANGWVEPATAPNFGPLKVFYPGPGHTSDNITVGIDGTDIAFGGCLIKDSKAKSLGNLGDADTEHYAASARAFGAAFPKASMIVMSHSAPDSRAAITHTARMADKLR
# Summary of the method: as §2
# [2] = system: Klebsiella pneumoniae expressing VIM-1 (IHMA599644); type: cell-based; conditions: with imipenem 1 μg/ml, 95% inhibition of bacterial growth; for Klebsiella pneumoniae MITC95: VIM-1 (IHMA599644)
# Summary of the method: (§3)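 Colonies from overnight 35 °C blood-agar cultures were suspended in saline, diluted 1:100 into 1.1× CAMHB and exposed to test compound with or without imipenem at 1 μg/ml. After 22–24 h at 35 °C, absorbance was read to find the concentration restoring imipenem susceptibility.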
# [3] = system: Serratia marcescens expressing IMP-1 (CL5741); type: cell-based; conditions: with imipenem 1 μg/ml, 95% inhibition of bacterial growth; for Serratia marcescens MITC95: IMP-1 (CL5741)
# Summary of the method: as §3
# [4] = system: Escherichia coli expressing NDM-1 (CLB30005, CLB30016); type: cell-based; conditions: with imipenem 1 μg/ml, 95% inhibition of bacterial growth; for Escherichia coli MITC95: NDM-1 (CLB30016)
# Summary of the method: as §3
# [5] = system: P. aeruginosa expressing IMP-1, efflux+ (MB9798); type: cell-based, Pseudomonas aeruginosa; conditions: for P. aeruginosa expressing IMP-1, efflux+ (MB9798) MITC95: imipenem at 2 μg/mL, in the presence of a class A, C, D serine β-lactamase inhibitor closely related to relebactam; for Efflux ratio: ratio MITC95 PA_9798/MITC95 PA_9799
# Text: as §1
# VIM-1 = VIM-1 (Pseudomonas aeruginosa (strain ATCC 15692 / DSM 22644 / CIP 104116 / JCM 14847 / LMG 12228 / 1C / PRS 101 / PAO1), UniProt A0A0F7KYQ8); test: biochemical; conditions: CCF2-FA substrate, 2 hours at 25° C
# Summary of the method: as §2
Structure (SMILES),"P. aeruginosa expressing IMP-1, efflux− (MB9799) MITC95 [1]",pIC50 (IMP-1),pIC50 (NDM-1),Klebsiella pneumoniae MITC95 [2],Serratia marcescens MITC95 [3],Escherichia coli MITC95 [4],"P. aeruginosa expressing IMP-1, efflux+ (MB9798) MITC95 [5]",Efflux ratio [5],pIC50 (VIM-1),Klebsiella pneumoniae expressing VIM-1 (IHMA599644) MITC95 [2],Serratia marcescens expressing IMP-1 (CL5741) MITC95 [3],Escherichia coli expressing NDM-1 (CLB30016) MITC95 [4]
"Cn1c(N)nc2c(-c3ccc(S(=O)(=O)C[C@@H](O)CN)c(S(N)(=O)=O)c3-c3nn[nH]n3)cccc21 [Example 363, (S)-3-(2-amino-1-methyl-1H-benzo[d]imidazol-4-yl)-6-((3-amino-2-hydroxypropyl)sulfonyl)-2-(2H-tetrazol-5-yl) benzenesulfonamide]",0.7813 µM,9.37,9.56,1.563 µM,0.7813 µM,0.3906 µM,0.7813 µM,1.00,9.45,–,–,–
"NS(=O)(=O)c1c(S(=O)(=O)C2CNC2)ccc(-c2ccnc3[nH]nnc23)c1-c1nn[nH]n1 [Example 200, 3-(3H-[1,2,3]triazolo[4,5-b]pyridin-7-yl)-6-(azetidin-3-ylsulfonyl)-2-(2H-tetrazol-5-yl)benzenesulfonamide]",25 µM,7.86,8.25,–,–,–,100 µM,4.00,7.67,100 µM,25 µM,25 µM
"Nc1c(-c2ccc(S(=O)(=O)C3CNC3)c(S(N)(=O)=O)c2-c2nn[nH]n2)cccc1S(N)(=O)=O [Example 287, 2′-amino-4-(azetidin-3-ylsulfonyl)-2-(2H-tetrazol-5-yl)biphenyl-3,3′-disulfonamide]",3.125 µM,8.53,9.41,3.125 µM,3.125 µM,3.125 µM,6.25 µM,2.00,9.22,–,–,–
"NS(=O)(=O)c1c(S(=O)(=O)C2CCNCC2)ccc([C@H]2CC[C@@H](N)CC2)c1-c1nnn[nH]1 [Example 208, 3-((1s,4s)-4-aminocyclohexyl)-6-(piperidin-4-ylsulfonyl)-2-(1H-tetrazol-5-yl) benzenesulfonamide]",3.125 µM,6.91,7.69,–,–,–,6.25 µM,2.00,7.73,6.25 µM,3.125 µM,1.563 µM
"NS(=O)(=O)c1c(S(=O)(=O)[C@H]2CCNC2)ccc(-c2cccc3cn[nH]c23)c1-c1nn[nH]n1 [Example 186, 3-(1H-indazol-7-yl)-6-((S)-pyrrolidin-3-ylsulfonyl)-2-(2H-tetrazol-5-yl)benzenesulfonamide]",0.7813 µM,9.27,9.61,–,–,–,1.563 µM,2.00,9.64,1.563 µM,1.563 µM,1.563 µM
"NS(=O)(=O)c1c(S(=O)(=O)C2CNC2)ccc(-c2cnc3ccccn23)c1-c1nn[nH]n1 [Example 9, 6-(Azetidin-3-ylsulfonyl)-3-(imidazo[1,2-a]pyridin-3-yl)-2-(2H-tetrazol-5-yl)benzenesulfonamide]",1.563 µM,9.04,9.48,–,–,–,6.25 µM,4.00,9.43,3.125 µM,1.563 µM,0.7813 µM
Nc1n[nH]c2cc(-c3ccc(S(=O)(=O)C4CNC4)c(S(N)(=O)=O)c3-c3nn[nH]n3)ccc12 [Example 20],1.563 µM,8.92,9.54,–,–,–,3.125 µM,2.00,9.77,3.125 µM,1.563 µM,3.125 µM
"NCCS(=O)(=O)c1ccc(-c2ccc3cccnc3c2)c(-c2nnn[nH]2)c1S(N)(=O)=O.O=C(O)C(F)(F)F [Example 159, 2-((4-(quinolin-7-yl)-2-sulfamoyl-3-(1H-tetrazol-5-yl)phenyl)sulfonyl)ethanaminium 2,2,2-trifluoroacetate]",1.563 µM,9.31,8.96,–,–,–,12.5 µM,8.00,9.58,3.125 µM,3.125 µM,1.563 µM
"Nc1nc2c(-c3ccc(S(=O)(=O)CC4(N)CC4)c(S(N)(=O)=O)c3-c3nn[nH]n3)cccc2s1 [Example 95, 3-(2-aminobenzo[d]thiazol-4-yl)-6-((1-aminocyclopropyl)methylsulfonyl)-2-(2H-tetrazol-5-yl)benzenesulfonamide]",1.563 µM,9.66,9.86,–,–,–,3.125 µM,2.00,9.53,6.25 µM,1.563 µM,1.563 µM
"NS(=O)(=O)c1c(SC2CNC2)ccc(-c2cccc3nccn23)c1-c1nnn[nH]1 [Example 63, 6-(Azetidin-3-ylthio)-3-(imidazo[1,2-a]pyridin-5-yl)-2-(1H-tetrazol-5-yl)benzenesulfonamide]",1.781 µM,6.90,8.23,–,–,–,50 µM,28.07,7.51,3.125 µM,3.125 µM,1 µM
"NCCS(=O)(=O)c1ccc(-c2cccc3nc(N)sc23)c(-c2nn[nH]n2)c1S(N)(=O)=O [Example 78, 3-(2-aminobenzo[d]thiazol-7-yl)-6-(2-aminoethylsulfonyl)-2-(2H-tetrazol-5-yl)benzenesulfonamide]",0.7813 µM,9.36,10.24,–,–,–,1.172 µM,1.50,9.87,2.344 µM,1.172 µM,0.7813 µM
